According to patent US20240277715A1, “COMBINATION THERAPIES COMPRISING A METTL3 INHIBITOR AND A FURTHER ANTICANCER AGENT” (Storm Therapeutics Limited, priority 2021, published 2024):
Where two headings read alike, the source gives them in different places.

Experiments:
Kasumi1 AML cell line = experiment: AML cell viability, CellTiter-Glo combination matrix, Kasumi1; format: cell-based; settings: for IC50: Homo sapiens, Kasumi 1, Kasumi1 cells
Protocol: (§1) The sensitivity of AML cell lines to combinations of METTL3 inhibitor and standards of care was determined as described. Dose response curves of venetoclax were determined either alone or in the presence of different concentrations of METTL3 inhibitor that are known to be active in cells.
(§2) Synergistic interactions occur when the IC50 value decreases in the presence of METTL3 inhibitor. […] Antagonistic interactions occur when the IC50 value increases in the presence of METTL3 inhibitor.
(§3) 24 h before cell treatment, homogenize, stain with Trypan blue and count viable cells using CellOMeter Auto T4. Dilute cells in media at 400 000 cells/ml to ensure an exponential growth the day after.
(§4) On treatment day, homogenize, stain with Trypan blue and count viable cells using CellOMeter Auto T4. Dilute to the proper cell seeding density according to Table 6 in cell media.
(§5) • Dispense drug (see Table 7) and METTL3 inhibitor in semi-log dose-response matrix and DMSO in 384-well plates using D300e Nanodispenser (Tecan). • 6× compound solution preparation: add 40 μL of cell medium in compound-containing plates and homogenize using the ViaFlo device (Integra) • Dispense 30 μl of cell suspension per well in three replicate 384-well white Ultra-Low-Attachment plates (Sbio) using ViaFlow device (Integra) • Transfer 6 μL of the 6× compound solution in each 30 μL cell suspension-containing plate. • Incubate at 37° C. 5% CO2 for 3 to 5 days.
(§6) • Add 35 μL CellTiter-Glo (Promega) in wells (vol/vol) using ViaFlo device (Integra). • Incubate at RT 10 min in the dark, with agitation the first minute, and read luminescence on the Ensight device (Perkin Elmer).
(§7) Raw data were converted to % viability by normalization to DMSO controls. IC50 determination was performed using GraphPad Prism and fitting curves to the standard nonlinear regression four parameter equation (Y=Bottom+(Top-Bottom)/(1+(IC50/X)^HillSlope)) least squares method, and synergy was assessed by comparison of IC50 values of the standard of care in the presence or absence of different concentrations of METTL3 inhibitor (see FIGS. 12 to 19).

AML = settings: cited from earlier work
MOLM13 AML cell line = experiment: AML cell viability, CellTiter-Glo combination matrix, MOLM13; format: cell-based; settings: for interaction with venetoclax: MOLM13 AML cell line
Protocol: as §1, §2, §3, §4, §5, §6, §7

[1] = test system: FLT3-mutant MOLM-14 AML cell line; experiment: AML cell viability, CellTiter-Glo combination matrix, MOLM-14; format: cell-based
Protocol: as §3, §4, §5, §6
Raw data were converted to % viability by normalization to DMSO controls.

[2] = test system: SKOV3 human ovarian cancer cells; experiment: Tumour killing assay (TKA), SKOV3 spheroid / PBMC co-culture; format: cell-based; settings: STM3480 0.05 micromolar, FIG. 1 and 2
Protocol: This experiment evaluates the effects of human donor Peripheral Blood Mononuclear Cells (PBMCs) to attack and kill fluorescently-labelled tumour cells in a co-culture assay. Briefly, test agents are incubated at different concentrations with SKOV3 human ovarian cancer cells in the presence or absence of human donor PBMCs and tumour growth is monitored continuously by real time imaging of the NucLight Red-labelled SKOV3 cells for several days.
NucLight Red (Incucyte, Essen Biosciences)-transduced SK-OV-3 (SK-OV-3-NLR) cells were transferred into Ultra-low attachment 96 well plates with spontaneous spheroid formation occurring over 48 hours. Peripheral blood mononuclear cells (PBMC) were isolated from healthy single donor buffy coats by density separation. Prior to co-culture of SK-OV-3-NLR spheroids with PBMC, SK-OV-3-NLR spheroids were treated with 10 ng/ml of interferon gamma (IFNγ). All treatments, including STM3480 and Pembrolizumab, were added at the point of co-culture in a final total volume of 200 μl/per well. Assay plates were transferred into an IncuCyte S3 and images were collected every 2 hours for 7 days. Following experimental completion, an analysis definition was applied to quantify the Total NLR Integrated Intensity present on a per well basis. Changes in spheroid size were quantified by plotting Total NLR Integrated Intensity against time.

[3] = Kasumi1, with increasing concentrations of STM3006
[4] = Kasumi1, with increasing concentrations of STM3480

**Q.** For `Nc1ncn([C@@H]2O[C@H](CO)[C@@H](O)[C@H]2O)c(=O)n1` [5′-azacitidine], which “change in IC50 of the standard of care” value (Kasumi1 AML cell line; [3]) is on record?
**A.** No change

**Q.** And the “change in IC50 of the standard of care” value (Kasumi1 AML cell line; [4])?
**A.** No change

**Q.** Which AML growth (AML) does the source give for `O=C(NCc1cn2cc(CNCC3CCCCC3)ccc2n1)c1cc(=O)n2ccccc2n1` [STM2457] here?
**A.** reduction

**Q.** And the differentiation and apoptosis (AML)?
**A.** increase

**Q.** Which interaction with venetoclax (MOLM13 AML cell line) does the source give for `CC1(C)CCN(Cc2ccc3nc(Cn4cc(-c5cc(Br)cc6[nH]ncc56)nn4)cn3c2)CC1` [STM3006, 6-bromo-4-[1-({6-[(4,4-dimethylpiperidin-1-yl)methyl]imidazo[1,2-a]pyridin-2-yl}methyl)-1H-1,2,3-triazol-4-yl]-1H-indazole] here?
**A.** synergistic

**Q.** What about the “cell viability with increasing concentrations of METTL3 inhibitor” value (Kasumi1 AML cell line; Kasumi1, combination with daunorubicin) of the same molecule?
**A.** decreasing viability

**Q.** And the “interaction with 5′-azacitidine” value (Kasumi1 AML cell line; Kasumi1 AML cell line)?
**A.** additive

**Q.** What about the interaction with cytarabine (Kasumi1 AML cell line; Kasumi1 AML cell line) of the same molecule?
**A.** additive

**Q.** And the interaction with daunorubicin (Kasumi1 AML cell line; Kasumi1 AML cell line)?
**A.** additive

**Q.** And the interaction with venetoclax (Kasumi1 AML cell line; Kasumi1 AML cell line)?
**A.** synergistic

**Q.** And the interaction with quizartinib ([1]; FLT3-mutant MOLM-14 AML cell line)?
**A.** additive

**Q.** What about the “cell viability with increasing concentrations of METTL3 inhibitor” value ([1]; MOLM-14, combination with quizartinib) of the same molecule?
**A.** decreasing viability

**Q.** With `O=C(NCc1ccc2cc(CNCC34CC(F)(C3)C4)[nH]c2c1)c1cc(=O)n2ccccc2n1` [STM3675, N-[(2-{[({3-fluorobicyclo[1.1.1]pentan-1-yl}methyl)amino]methyl}-1H-indol-6-yl)methyl]-4-oxo-4H-pyrido[1,2-a]pyrimidine-2-carboxamide] as the molecule, how does the interaction with venetoclax (MOLM13 AML cell line) read?
**A.** synergistic

**Q.** What about the interaction with venetoclax (Kasumi1 AML cell line; Kasumi1 AML cell line) of the same molecule?
**A.** synergistic

**Q.** With `Nc1ccn([C@@H]2O[C@H](CO)[C@@H](O)[C@@H]2O)c(=O)n1` [cytarabine] as the molecule, how does the “change in IC50 of the standard of care” value (Kasumi1 AML cell line; [3]) read?
**A.** No change

**Q.** And the “change in IC50 of the standard of care” value (Kasumi1 AML cell line; [4])?
**A.** No change

**Q.** Which results are given for `COc1cccc2c1C(=O)c1c(O)c3c(c(O)c1C2=O)C[C@@](O)(C(C)=O)C[C@@H]3O[C@H]1C[C@H](N)[C@H](O)[C@H](C)O1` [daunorubicin]?
**A.** change in IC50 of the standard of care (Kasumi1 AML cell line; [3]): No change; change in IC50 of the standard of care (Kasumi1 AML cell line; [4]): No change

**Q.** Which “change in IC50 of the standard of care” value (MOLM13 AML cell line; MOLM13, with increasing concentrations of STM3006) does the source give for `CC1(C)CCC(CN2CCN(c3ccc(C(=O)NS(=O)(=O)c4ccc(NCC5CCOCC5)c([N+](=O)[O-])c4)c(Oc4cnc5[nH]ccc5c4)c3)CC2)=C(c2ccc(Cl)cc2)C1` [venetoclax, 4-{4-[(4′-chloro-5,5-dimethyl[3,4,5,6-tetrahydro[1,1′-biphenyl]]-2-yl)methyl]piperazin-1-yl}-N-(3-nitro-4-{[(oxan-4-yl)methyl]amino}benzene-1-sulfonyl)-2-[(1H-pyrrolo[2,3-b]pyridin-5-yl)oxy]benzamide] here?
**A.** decreasing

**Q.** What about the “change in IC50 of the standard of care” value (MOLM13 AML cell line; MOLM13, with increasing concentrations of STM3480) of the same molecule?
**A.** decreasing

**Q.** And the “change in IC50 of the standard of care” value (MOLM13 AML cell line; MOLM13, with increasing concentrations of STM3675)?
**A.** decreasing

**Q.** And the IC50 (Kasumi1 AML cell line; in the presence of 316.2 nM STM3480, read-out: venetoclax IC50)?
**A.** 50.9 nM

**Q.** And the IC50 (Kasumi1 AML cell line; in the presence of 1000 nM STM3480, read-out: venetoclax IC50)?
**A.** 22.2 nM

**Q.** And the IC50 (Kasumi1 AML cell line; venetoclax alone, read-out: IC50 of venetoclax)?
**A.** 238 nM

**Q.** And the “change in IC50 of the standard of care” value (Kasumi1 AML cell line; [3])?
**A.** decreasing

**Q.** And the “change in IC50 of the standard of care” value (Kasumi1 AML cell line; [4])?
**A.** decreasing

**Q.** And the “change in IC50 of the standard of care” value (Kasumi1 AML cell line; Kasumi1, with increasing concentrations of STM3675)?
**A.** decreasing

**Q.** For “Pembrolizumab: anti-PD1 antibody [reference compound]”, which “tumour viability (normalized NucLight Red [NLR] fluorescence) against time” value [2] is on record?
**A.** greater decline in viable tumour cells
